What was measured:
platelets [1] = experiment: Examination on cold agglutination (platelet counting after cold storage); format: cell-based, human
Description: Blood samples to which CTAD of the present invention or EDTA-2K was added were subjected to the platelet counting in order to compare them with regard to cold agglutination (the pseudothrombocytopenia in cold storage). […]

platelets [2] = experiment: Change with time in the mean platelet volume (MPV); format: cell-based, human; conditions: FIG. 2
Description: Blood samples to which CTAD of the present invention or EDTA-2K was added were compared with regard to change with time in the size of platelets.

platelets [3] = experiment: Examination on EDTA-dependant pseudothrombocytopenia (platelet counting); format: cell-based, human; conditions: FIG. 1
Description: Blood samples to which CTAD of the present invention or EDTA-2K was added were subjected to the platelet counting in order to compare them with regard to the EDTA-dependant Pseudothrombocytopenia.

blood coagulation = experiment: Blood coagulation tests (CA-1000), Example 1 A; parameters: species or system human; conditions: mean of four normal samples
Excerpt: Blood was collected into test tubes containing the anticoagulant (CTAD) prepared as above and subjected to blood cell count tests (leukocyte count (WBC), ratios of leukocytic components (neutrophil ratio (NEUT%), lymphocyte ratio (LYMPH%), monocyte ratio (MONO%), eosinophil ratio (EOSI%) and basophil ratio (BASO%)), erythrocyte count (RBC), hemoglobin concentration (Hgb), hematocrit (Hct), MCV, MCH, MCHC and platelet count (PLT))(used counter: SE-9000™ produced by Sysmex Corporation, Japan) and coagulation tests (prothrombin time (PT), activated partial thromboplastin time (APTT), fibrinogen determination (Fbg))(used tester:CA-1000 produced by Sysmex Corporation, Japan).
EDTA-2K (Venoject II™ or 5 ml produced by Terumo), 5 mg, was used as a control for the blood cell count tests and a 3.8% solution of sodium citrate (3.8% solution of sodium citrate for 5 ml produced by Terumo, Japan), 0.5 ml, was used as a control for the blood coagulation tests, respectively, in place of the above anticoagulant.
The tests were conducted with four normal samples, and mean values are calculated.

Structure (SMILES) | decrease of platelets in cold storage (platelets [1]; 4° C., eight hours after collected) | PLT (platelet count) (platelets [1]; 37° C. (control)) | PLT (platelet count) (platelets [1]; preserved at 4° C., examined eight hours after collected) | change with time in the size of platelets (mean platelet volume) (platelets [2]) | change with time in the number of platelets (platelets [3]) | APTT (activated partial thromboplastin time) (blood coagulation) [s] | Fbg (fibrinogen determination) (blood coagulation) [s] | PT (prothrombin time) (blood coagulation) [s]
O=C([O-])CN(CCN(CC(=O)O)CC(=O)O)CC(=O)[O-].[K+].[K+] [EDTA-2K] | Platelets decreased | 17.6 ×10^4 | 9.0 ×10^4 | grew in size with time | decreased with time | – | – | –
O=C([O-])CC(O)(CC(=O)[O-])C(=O)[O-].[Na+].[Na+].[Na+] [sodium citrate] | – | – | – | – | – | 28.6 | 9.8 | 9.5
